target: T1, human capsaicin receptor (Homo sapiens, UniProt Q8NER1); experiment: Antagonist assay for Capsaicin receptor mediated calcium mobilization; type: cell-based; settings: Table III, read-out: EC50 (the source's name)
T1 construct: expression consrtuct encoding the full length human capsaicin receptor; expressed in transfected cells
Method: Calcium Mobilization Assay
Cells transfected with expression plasmids (as described in Example 10) and thereby expressing the human capsaicin receptor are seeded and grown to 70-90% confluency in FALCON black-walled, clear-bottomed 96-well plates (#3904, BECTON-DICKINSON, Franklin Lakes, N.J.) . The culture media are emptied from the 96 well plates and FLUO-3 AM calcium sensitive dye (Molecular Probes, Eugene, OR) is added to each well (dye solution: 1 mg FLUO-3 AM, 440 uL DMSO and 440 ul 20% pluronic acid in DMSO, diluted 1:4, 50 ul diluted solution per well). Plates are covered with aluminum foil and incubated at 37° C for 1-2 hours in an environment containing 5% CO2. After the incubation the dye is emptied from the plates, and the cells are washed once with Krebs-Ringer HEPES (KRH) buffer (25 mM HEPES, 5 mM KCl, 0.96 mM NaH2PO4, 1 MM MgSO4, 2 mM CaCl2, 5 mM glucose, 1 mM probenecid, pH 7.4), and resuspended in KRH buffer.
Agonist (e.g., olvanil, capsaicin, or RTX)-induced calcium mobilization is monitored using either FLUOROSKAN ASCENT (Labsystems, Franklin, Mass.) or FLIPR (fluorometric imaging plate reader system, Molecular Devices, Sunnyvale, Calif.) instruments. Similarly, varying concentrations of the antagonists ruthenium red or capsazepine are added to cells concurrently with agonist (e.g., 25-50 nM capsaicin). For agonist-induced calcium responses, data obtained between 30 and 60 seconds after agonist application are used to generate the EC50 values. […] software (Synergy Software, Reading, Pa.) was utilized to fit the data to the equation: […]
to determine the EC50 for the response. In this equation, y is the maximum fluorescence signal, x is the concentration of the agonist or antagonist, a is the Emax, b corresponds to the EC50 or IC50 value, and finally, c is the Hill coefficient.
Assay for Determination of Capsaicin Receptor Antagonist Effects
In order to measure the ability of a test compound to antagonize (inhibit) the response of cells expressing capsaicin receptors to capsaicin or other vanilloid agonist, the EC50 of capsaicin is first determined.
An additional 20 ul of KRH buffer and 1 ul DMSO is added to each well of cells, prepared as described above. 100 ul capsaicin in KRH buffer is automatically transferred by the FLIPR instrument to each well.
Test compounds are dissolved in DMSO, diluted in 20 ul KRH buffer so that the final concentration of test compounds in the assay well is between 1 uM and 5 uM, and added to cells prepared as described above. The 96 well plates containing prepared cells and test compounds are incubated in the dark, at room temperature for 0.5-6 hours. It is important that the incubation not continue beyond 6 hours. Just prior to determining the fluorescence response, 100 ul capsaicin in KRH buffer at twice the EC50 concentration determined from the concentration response curve is automatically added by the FLIPR instrument to each well of the 96 well plate for a final sample volume of 200 ul and a final capsaicin concentration equal to the EC50. The final concentration of test compounds in the assay wells is between 1 uM and 5 uM. […] Antagonists of the capsaicin receptor decrease this response by about 20%, preferably by about 50%, and most preferably by at least 80% as compared to matched control. The concentration of antagonist required to provide a 50% decrease is the EC50 for the antagonist (also referred to as the IC50).

T1 sequence (Q8NER1 whole entry): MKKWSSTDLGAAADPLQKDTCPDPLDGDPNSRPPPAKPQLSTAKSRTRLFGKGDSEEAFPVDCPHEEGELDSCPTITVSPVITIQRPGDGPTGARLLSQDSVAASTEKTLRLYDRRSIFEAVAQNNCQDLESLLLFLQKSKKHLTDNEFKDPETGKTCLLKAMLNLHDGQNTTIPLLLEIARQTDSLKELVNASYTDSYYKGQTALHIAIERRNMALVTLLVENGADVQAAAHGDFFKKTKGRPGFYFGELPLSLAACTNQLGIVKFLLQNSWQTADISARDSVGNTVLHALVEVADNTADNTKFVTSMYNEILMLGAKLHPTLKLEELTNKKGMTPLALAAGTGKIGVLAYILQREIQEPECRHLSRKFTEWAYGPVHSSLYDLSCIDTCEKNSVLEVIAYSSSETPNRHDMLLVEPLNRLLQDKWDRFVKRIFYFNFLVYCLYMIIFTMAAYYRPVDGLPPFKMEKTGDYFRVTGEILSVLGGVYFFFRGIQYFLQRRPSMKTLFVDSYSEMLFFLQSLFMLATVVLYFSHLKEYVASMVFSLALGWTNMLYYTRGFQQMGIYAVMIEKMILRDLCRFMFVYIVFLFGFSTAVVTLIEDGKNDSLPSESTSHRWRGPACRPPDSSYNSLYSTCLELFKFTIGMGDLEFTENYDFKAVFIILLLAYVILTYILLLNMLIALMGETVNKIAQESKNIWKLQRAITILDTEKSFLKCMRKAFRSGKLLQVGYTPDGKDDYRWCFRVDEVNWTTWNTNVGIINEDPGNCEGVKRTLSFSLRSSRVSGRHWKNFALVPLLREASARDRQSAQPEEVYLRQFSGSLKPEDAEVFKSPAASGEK

Compound	IC50
C[C@@H]1CN(c2ncccc2C(F)(F)F)CCN1C(=O)Nc1ccc(C2(O)CCOCC2)cc1 [Compound 51, (2R)-N-[4-(4-hydroxytetrahydro-2H-pyran-4-yl)phenyl]-2-methyl-4-[3-(trifluoromethyl)pyridin-2-yl]piperazine-1-carboxamide]	< 1000 nM
Cc1nc(-c2ccc(NC(=O)N3CCN(c4ncccc4Cl)C[C@H]3C)cc2)cs1 [Compound 52, (2R)-4-(3-chloropyridin-2-yl)-2-methyl-N-[4-(2-methyl-1,3-thiazol-4-yl)phenyl]piperazine-1-carboxamide]	< 1000 nM
CCc1nc(-c2ccc(NC(=O)N3CCN(c4ncccc4Cl)C[C@H]3C)cc2)cs1 [Compound 53, (2R)-4-(3-chloropyridin-2-yl)-N-[4-(2-ethyl-1,3-thiazol-4-yl)phenyl]-2-methylpiperazine-1-carboxamide]	< 1000 nM
COCC(C)(C)c1ccc(NC(=O)N2CCN(c3ncccc3Cl)C[C@H]2C)cc1 [Compound 54, (2R)-4-(3-chloropyridin-2-yl)-N-[4-(2-methoxy-1,1-dimethylethyl)phenyl]-2-methylpiperazine-1-carboxamide]	< 1000 nM
COCC(C)(C)c1ccc(NC(=O)N2CCN(c3ncccc3C(F)(F)F)C[C@H]2C)cc1 [Compound 55, (2R)-N-[4-(2-methoxy-1,1-dimethylethyl)phenyl]-2-methyl-4-[3-(trifluoromethyl)pyridin-2-yl]piperazine-1-carboxamide]	< 1000 nM
C[C@@H]1CN(c2ncccc2Cl)CCN1C(=O)Nc1ccc(C(C)(C)C#N)cc1 [Compound 56, (2R)-4-(3-chloropyridin-2-yl)-N-[4-(1-cyano-1-methylethyl)phenyl]-2-methylpiperazine-1-carboxamide]	< 1000 nM
C[C@@H]1CN(c2ncccc2C(F)(F)F)CCN1C(=O)Nc1ccc(C(C)(C)C#N)cc1 [Compound 57, (2R)-N-[4-(1-cyano-1-methylethyl)phenyl]-2-methyl-4-[3-(trifluoromethyl)pyridin-2-yl]piperazine-1-carboxamide]	< 1000 nM
CCC1CN(c2ncccc2Cl)CCN1C(=O)Nc1ccc(C(C)(C)C)cc1 (stereo not drawn) [Compound 58, N-(4-tert-butylphenyl)-4-(3-chloropyridin-2-yl)-2-ethylpiperazine-1-carboxamide]	< 1000 nM
CCC1CN(c2ncccc2Cl)CCN1C(=O)Nc1ccc(C(F)(F)F)cc1 (stereo not drawn) [Compound 59, 4-(3-chloropyridin-2-yl)-2-ethyl-N-[4-(trifluoromethyl)phenyl]piperazine-1-carboxamide]	< 1000 nM
CCC1CN(c2ncccc2Cl)CCN1C(=O)Nc1ccc(C(C)C)cc1 (stereo not drawn) [Compound 60, 4-(3-chloropyridin-2-yl)-2-ethyl-N-[4-isopropylphenyl)piperazine-1-carboxamide]	< 1000 nM
CCC1CN(c2ncccc2C(F)(F)F)CCN1C(=O)Nc1ccc(C(C)(C)C)cc1 (stereo not drawn) [Compound 61, N-(4-tert-butylphenyl)-2-ethyl-4-[3-(trifluoromethyl)pyridin-2-yl]piperazine-1-carboxamide]	< 1000 nM
CCC1CN(c2ncccc2C(F)(F)F)CCN1C(=O)Nc1ccc(C(F)(F)F)cc1 (stereo not drawn) [Compound 62, 2-ethyl-N-[4-(trifluoromethyl)phenyl]-4-[3-(trifluoromethyl)pyridin-2-yl]piperazine-1-carboxamide]	< 1000 nM
CCC1CN(c2ncccc2C(F)(F)F)CCN1C(=O)Nc1ccc(C(C)C)cc1 (stereo not drawn) [Compound 63, 2-ethyl-N-(4-isopropylphenyl)-4-[3-(trifluoromethyl)pyridin-2-yl]piperazine-1-carboxamide]	< 1000 nM
CC(C)(C)c1ccc(NC(=O)N2CCN(c3ncccc3Cl)CC2C(C)(C)C)cc1 (stereo not drawn) [Compound 64, 2-tert-butyl-N-(4-tert-butylphenyl)-4-(3-chloropyridin-2-yl)piperazine-1-carboxamide]	< 1000 nM
CC(C)(C)C1CN(c2ncccc2C(F)(F)F)CCN1C(=O)Nc1ccc(C(F)(F)F)cc1 (stereo not drawn) [Compound 68, 2-tert-butyl-N-[4-(trifluoromethyl)phenyl]-4-[3-(trifluoromethyl)pyridin-2-yl]piperazine-1-carboxamide]	< 1000 nM

— US20020132853A1, “Capsaicin receptor ligands” (priority 2000, published 2002)
